For 4 compounds, MIC results are on record in DBAASP.

Common to all, as to test: ≥ marks a high value that may be exact or a test limit, other limits are often not marked, values filed in µg/mL are converted to µM
The subject of assay [1] is Escherichia coli KCTC 1682.
Assay [2] has as its system Staphylococcus aureus KCTC 1621.
The subject of assay [3] is Proteus vulgaris.
Assay [4] deals with Bacillus megaterium KCTC 1096.
The test system of assay [5] is Bacillus subtilis KCTC 1918.
Assay [6] relates to Pseudomonas aeruginosa KCTC 1637.
Assay [7] has as its system Salmonella typhimurium.
Assay [8] has as its system Escherichia coli B.
The test system of assay [9] is Staphylococcus haemolyticus.
Assay [10] relates to Klebsiella pneumoniae.
Assay [11] has as its system Bacillus megaterium.
Assay [12] has as its system Enterobacter cloacae.
Assay [13] relates to Staphylococcus aureus.
Assay [14] has as its system Salmonella enterica subsp. enterica serovar Enteritidis.
The test system of assay [15] is Staphylococcus aureus ATCC 25923.
In assay [16] the test system is Candida albicans ATCC 20032.
For assay [17], the system named is Escherichia coli ATCC 25922.
The subject of assay [18] is Bacillus subtilis ATCC 6633.
For assay [19], the system named is Salmonella typhimurium KCTC 1926.
Assay [20] has as its system Streptococcus pyogenes KCTC 3096.

The structures appear in SMILES notation. In brackets after ≈: the same amount, converted by molar mass.

For the compound `CC[C@H](C)[C@H](NC(=O)[C@H](CCCCN)NC(=O)[C@H](CCCCN)NC(=O)[C@H](Cc1ccccc1)NC(=O)[C@H](CC(C)C)NC(=O)[C@H](CCCCN)NC(=O)[C@H](Cc1c[nH]c2ccccc12)NC(=O)[C@@H](N)CCCCN)C(=O)N1CCC[C@H]1C(=O)N[C@@H](Cc1ccccc1)C(=O)N[C@@H](CC(C)C)C(=O)N[C@@H](Cc1cnc[nH]1)C(=O)N[C@@H](CC(C)C)C(=O)N[C@@H](C)C(=O)N[C@@H](CCCCN)C(=O)N[C@@H](CCCCN)C(=O)N[C@@H](Cc1ccccc1)C(N)=O` [KWKLFKKIPFLHLAKKF], the minimal inhibitory concentration (MIC) in [1] was 6.25 µM (≈ 13.6 µg/mL); in assay [2], 3.12 µM (≈ 6.79 µg/mL); in [3] it was 1.56 µM (≈ 3.39 µg/mL); in assay [4] it was 1.56 µM (≈ 3.39 µg/mL); in [5] it was 0.78 µM (≈ 1.69 µg/mL); in [6], 6.25 µM (≈ 13.6 µg/mL).

Consider `CC[C@H](C)[C@H](NC(=O)[C@@H](NC(=O)[C@@H]1CCCN1C(=O)[C@@H](NC(=O)[C@@H](NC(=O)[C@H](CCCN=C(N)N)NC(=O)[C@@H]1CCCN1C(=O)[C@@H](NC(=O)[C@@H](NC(=O)[C@H](Cc1cnc[nH]1)NC(=O)[C@H](CCCCN)NC(=O)[C@H](C)NC(=O)[C@@H](NC(=O)[C@H](CO)NC(=O)CNC(=O)[C@H](CC(C)C)NC(=O)[C@@H](NC(=O)[C@H](CO)NC(=O)[C@H](Cc1ccccc1)NC(=O)[C@H](CC(C)C)NC(=O)CN)C(C)C)C(C)C)C(C)C)C(C)C)C(C)C)C(C)C)C(C)C)C(=O)N[C@@H](C)C(=O)N[C@@H](CCC(=O)O)C(=O)N[C@@H](Cc1cnc[nH]1)C(=O)N[C@@H](CC(C)C)C(N)=O` [GLFSVLGSVAKHVVPRVVPVIAEHL], for which the minimum inhibitory concentration (MIC) in assay [7] was no less than 100 µM; in [8], 25 µM (≈ 65.6 µg/mL); in [9] it was no less than 50 µM; in assay [10] it was 25 µM (≈ 65.6 µg/mL); in [11], no less than 100 µM; in [12], no less than 50 µM. Also, the minimal inhibitory concentration (MIC) in [13] is greater than 100 µM; in assay [14] it was no less than 100 µM.

Regarding `CC[C@H](C)[C@H](N)C(=O)N[C@@H](CC(C)C)C(=O)NCC(=O)N1CCC[C@H]1C(=O)N[C@H](C(=O)N[C@@H](CC(C)C)C(=O)NCC(=O)N[C@@H](CC(C)C)C(=O)N[C@@H](CC(=O)O)C(=O)NCC(=O)N[C@@H](CC(N)=O)C(=O)N[C@@H](C)C(=O)N[C@@H](CC(C)C)C(=O)NCC(=O)NCC(=O)N[C@@H](CC(C)C)C(=O)N[C@H](C(=O)N[C@@H](CCCCN)C(=O)N[C@@H](CCCCN)C(=O)N[C@H](C(N)=O)[C@@H](C)CC)[C@@H](C)CC)C(C)C` [ILGPVLGLDGNALGGLIKKI], the MIC in assay [15] is greater than 51 µM; in assay [16], no less than 51 µM; in assay [17], greater than 51 µM; in [18], no less than 51 µM.

Take `CC[C@H](C)[C@H](NC(=O)[C@H](CCCCN)NC(=O)[C@H](CCCCN)NC(=O)[C@H](Cc1ccccc1)NC(=O)[C@H](CC(C)C)NC(=O)[C@H](CCCCN)NC(=O)[C@H](Cc1c[nH]c2ccccc12)NC(=O)[C@@H](N)CCCCN)C(=O)NCC(=O)N1CCC[C@H]1C(=O)NCC(=O)N[C@@H](CCCCN)C(=O)N[C@@H](Cc1ccccc1)C(=O)N[C@@H](CC(C)C)C(=O)N[C@@H](Cc1cnc[nH]1)C(=O)N[C@@H](CO)C(=O)N[C@@H](C)C(=O)N[C@@H](CCCCN)C(=O)N[C@@H](CCCCN)C(=O)N[C@@H](Cc1ccccc1)C(N)=O` [KWKLFKKIGPGKFLHSAKKF]: the minimum inhibitory concentration (MIC) was determined as 3.12 µM (≈ 7.46 µg/mL) in assay [1]; 3.12 µM (≈ 7.46 µg/mL) in assay [2]; 0.78 µM (≈ 1.86 µg/mL) in assay [19]; 0.78 µM (≈ 1.86 µg/mL) in [20]; 0.78 µM (≈ 1.86 µg/mL) in [5]; 0.78 µM (≈ 1.86 µg/mL) in [6].

A word on the MIC: it is the least concentration at which growth counts as inhibited. Low readings indicate inhibition by little substance, high ones a need for much substance.
